{
  "source": "patent US20140106387A1",
  "about": "“METHOD FOR CONTROLLING NAD(P)/NAD(P)H RATIO BY OXIDOREDUCTASE” (MD BIOALPHA CO., LTD., priority 2006, published 2014)",
  "test": "AMP/ATP, NAD+/NADH and NADP+/NADPH ratios in liver after intravenous administration",
  "assay_type": "in vivo, mouse",
  "description": "Acid extraction was used for analysis of an AOPN concentration in the cells and liver tissues. 400 μl of 6% HClO4 was added to the cells cultured in a 100 mm dish, whereas a two-fold volume of 6% HClO4 was added to the liver tissues which were then immediately homogenized. Each mixture was centrifuged at 14,000 g and 4° C. for 10 min, and the resulting supernatants were neutralized by addition of 1 M borate buffer (pH 11) containing 4 mM EDTA in an amount of 75%. Samples were aliquoted and stored at a temperature of −80° C.\nAnalysis of an RPN concentration in liver tissues was carried out using alkali extraction. An equal volume of ice-cold 0.5 M KOH was added to the liver tissues which were then immediately homogenized. Thereafter, a two-fold volume of ice-cold distilled water was added and mixed with the liver tissues for 2 min, and the mixture was centrifuged using an Amicon ultrafiltration membrane (MILLIPORE) at 14,000 g and 4° C. for 40 min. The thus-obtained filtrate was neutralized by addition of 1 M KH2PO4 (pH 6.5) in an amount of 10%. Samples were aliquoted and stored at a temperature of −70° C. Concentration determination was made within 72 hours.\nA mobile phase was 100 mM ammonium acetate:MeOH (98:2, v/v), and preparations were filtered through a 0.22-μm Millipore filter. A flow rate was set to 0.8 mL/min and detection was made at 254 nm. Separation was carried out using a ZORBAX Bonus-RP C18 column (3.5 μm, 4.6×150 mm I.D., […]). The samples were maintained at 4° C. in a thermostatted autosampler until they were loaded onto the column.\nIn order to assay ATP, ADP, AMP, NAD and NADP levels, 450 μl of 5 mM ammonium acetate was added to 50 μl of a liver sample extracted with perchloric acid (HClO4) which was then diluted ten times. Diluted samples were vortexed and mixed for 1 min, and the mixture was filtered through a 0.2 μm nylon syringe filter (Whatman, Brentford, UK). Then, 5 μl of each aliquot was injected into a HPLC system. Each standard solution (50 μl) for these analytes was added to 50 μl of an extraction solution containing 2-chloroadenosine (internal standard) and 400 μl of 5 mM ammonium acetate, and mixed and filtered in the same manner as in the above samples. For analysis of NADH and NADPH, each 100 μl of liver samples extracted with a potassium hydroxide (KOH) solution was diluted twice with an equal amount of a 5 mM ammonium acetate (KOH solution for standards). HPLC system consists of an Agilent 1100 series vacuum degasser, a binary pump, an autosampler, a thermostatted column compartment, and a DAD detector (Agilent Technologies, Palo Alto, Calif.). Adenine and nucleotide analogues were separated by Waters XTena MS C18 2.1×150 mm, 3.5 μm column (Waters, Milford, Mass., USA) chromatography using a gradient method. A mobile phase for adenine and nucleotide analogues was 5 mM ammonium acetate (A) and methanol (B). NAD^+-related compounds were separated by linear gradient elution of initial 98% (A) to final 70% (B) at a time point of 8 min. The mobile phase was developed at 70% (B) for 7 min. Finally, the mobile phase was returned to 98% (A) at a point of 16 min, and reequilibrated to 98% (A) for 12 min. A flow rate was set to 0.2 mL/min throughout the entire period of time. An injection volume was 5 μl. Electrospray-ionization mass spectrometry (ESI-MS) was carried out in a positive ion mode using MDS Sciex API 4000 Triple Quadrupole Mass Spectrometer (Applied Biosystems, Ontario, Calif.).\n5 mg/kg of pyrano-1,2-naphthoquinone was intravenously administered to a tail vein of DIO mice and changes in an NADH amount and an NAD^+/NADH ratio of liver tissues were examined for 6 hours.",
  "key": {"[1]": {"conditions": "5 mg/kg intravenous, liver of DIO mice"}},
  "data": [
    {"smiles": "CC1(C)CCC2=C(O1)c1ccccc1C(=O)C2=O", "note": "[βL, 2,2-Dimethyl-3,4-dihydro-2H-benzo[h]chromene-5,6-dione]", "values": [
      {"measurement": "numerical value of NADP+", "setting": "5 mg/kg intravenous, liver", "value": "no significant change"},
      {"measurement": "time point of maximum NAD+/NADPH ratio", "setting": "5 mg/kg intravenous, liver", "value": 120, "unit": "min"},
      {"measurement": "time point of highest AMP/ATP ratio", "setting": "[1]", "value": 30, "unit": "min"},
      {"measurement": "time point of maximum NAD+ amount and NAD+/NADH ratio", "setting": "[1]", "value": 120, "unit": "min"},
      {"measurement": "time point of maximum increase of AMP concentration", "setting": "[1]", "value": 30, "unit": "min"},
      {"measurement": "time point of recovery of AMP concentration to a normal level", "setting": "[1]", "value": 120, "unit": "min"},
      {"measurement": "time point of recovery of AMP/ATP ratio to the initial state", "setting": "[1]", "value": 360, "unit": "min"},
      {"measurement": "changes in the AMP/ATP and NAD+/NADP ratios", "setting": "DIO mice", "value": "significant changes"},
      {"measurement": "AMP/ATP and NAD+/NADH ratios in the liver compared to control group", "setting": "intravenous (IV) injection", "value": "higher"}
    ]}
  ]
}
